Assay [1] deals with snHAS. The assay is described as follows: HA formation by HABP-HRP HA detection kit (TMB, OD450), Michaelis-Menten fit. Conditions: 15 mM MgCl2, 50 mM PBS, 5 mM DTT, 37 °C, 30 µM enzyme, read-out: snHASE173D. The assay is classed as biochemical, Candidatus Mycoplasma liparidae. The source says:
HA formation by HABP-HRP HA detection kit (TMB, OD450), Michaelis-Menten fit on snHAS

Assay [2] relates to snHAS. The assay is described as above. The assay is classed as biochemical, Candidatus Mycoplasma liparidae. Conditions: 15 mM MgCl2, 50 mM PBS, 5 mM DTT, 37 °C, 30 µM enzyme.

Read-outs that look alike come from different tables or passages of the source.

On to `CC(=O)N[C@H]1[C@@H](OP(=O)(O)OP(=O)(O)OC[C@H]2O[C@@H](n3ccc(=O)[nH]c3=O)[C@H](O)[C@@H]2O)O[C@H](CO)[C@@H](O)[C@@H]1O` [UDP-GlcNAc], for which the Km in the assay with snHAS [1] (1 mM UDP-GlcA fixed) turned out to be 410 ± 70 µM; in the assay on snHAS [2] (1 mM UDP-GlcA fixed), 258 ± 45 µM.
Turning to `O=C(O)[C@H]1O[C@H](OP(=O)(O)OP(=O)(O)OC[C@H]2O[C@@H](n3ccc(=O)[nH]c3=O)[C@H](O)[C@@H]2O)[C@H](O)[C@@H](O)[C@@H]1O` [UDP-GlcA], the Km came to 210 ± 20 µM with snHAS [1] (1 mM UDP-GlcNAc fixed) and 39 ± 5 µM in the assay on snHAS [2] (1 mM UDP-GlcNAc fixed).

Values taken from article PMC12036578, “Expression and molecular characterization of an intriguing hyaluronan synthase (HAS) from the symbiont “Candidatus Mycoplasma liparidae” in snailfish” (PeerJ, 2025).
